Measured values from PMC6222927, “Aminobenzosuberone Scaffold as a Modular Chemical Tool for the Inhibition of Therapeutically Relevant M1 Aminopeptidases” (Molecules : A Journal of Synthetic Chemistry and Natural …, 2018).
Read-outs that look alike come from different tables or passages of the source. Marks after values point to notes of the source that are not given here.

Tests used:
[1] = Octanol/water partition coefficient (logD7.4) by reversed-phase HPLC; settings: pH 7.4
Experimental: The flow was 0.9 mL/min. The aminobenzosuberone derivatives were dissolved at 0.4 µM in methanol. The standards were also dissolved in methanol. Column void volume was estimated from the retention time of uracil, which was included as a non-retained internal reference with each injection.

[2] = target: human leukotriene A4 hydrolase (rHsLTA4H); set-up: method as in PMID 21843945; settings: cited from earlier work; for Ki: ref 58; for % of inhibition of rHsLTA4H: determined at 100 µM
[3] = target: aminopeptidase from A. proteolytica (AAP); set-up: method as in PMID 21843945; settings: ref 58; cited from earlier work
[4] = target: T1, P. falciparum rPfAM1 (Plasmodium falciparum, UniProt O96935); assay: biochemical; type: biochemical
T1 construct: made in house; host or cells: Escherichia coli Rosetta 2 (DE3)
T1 sequence (O96935 1-1085): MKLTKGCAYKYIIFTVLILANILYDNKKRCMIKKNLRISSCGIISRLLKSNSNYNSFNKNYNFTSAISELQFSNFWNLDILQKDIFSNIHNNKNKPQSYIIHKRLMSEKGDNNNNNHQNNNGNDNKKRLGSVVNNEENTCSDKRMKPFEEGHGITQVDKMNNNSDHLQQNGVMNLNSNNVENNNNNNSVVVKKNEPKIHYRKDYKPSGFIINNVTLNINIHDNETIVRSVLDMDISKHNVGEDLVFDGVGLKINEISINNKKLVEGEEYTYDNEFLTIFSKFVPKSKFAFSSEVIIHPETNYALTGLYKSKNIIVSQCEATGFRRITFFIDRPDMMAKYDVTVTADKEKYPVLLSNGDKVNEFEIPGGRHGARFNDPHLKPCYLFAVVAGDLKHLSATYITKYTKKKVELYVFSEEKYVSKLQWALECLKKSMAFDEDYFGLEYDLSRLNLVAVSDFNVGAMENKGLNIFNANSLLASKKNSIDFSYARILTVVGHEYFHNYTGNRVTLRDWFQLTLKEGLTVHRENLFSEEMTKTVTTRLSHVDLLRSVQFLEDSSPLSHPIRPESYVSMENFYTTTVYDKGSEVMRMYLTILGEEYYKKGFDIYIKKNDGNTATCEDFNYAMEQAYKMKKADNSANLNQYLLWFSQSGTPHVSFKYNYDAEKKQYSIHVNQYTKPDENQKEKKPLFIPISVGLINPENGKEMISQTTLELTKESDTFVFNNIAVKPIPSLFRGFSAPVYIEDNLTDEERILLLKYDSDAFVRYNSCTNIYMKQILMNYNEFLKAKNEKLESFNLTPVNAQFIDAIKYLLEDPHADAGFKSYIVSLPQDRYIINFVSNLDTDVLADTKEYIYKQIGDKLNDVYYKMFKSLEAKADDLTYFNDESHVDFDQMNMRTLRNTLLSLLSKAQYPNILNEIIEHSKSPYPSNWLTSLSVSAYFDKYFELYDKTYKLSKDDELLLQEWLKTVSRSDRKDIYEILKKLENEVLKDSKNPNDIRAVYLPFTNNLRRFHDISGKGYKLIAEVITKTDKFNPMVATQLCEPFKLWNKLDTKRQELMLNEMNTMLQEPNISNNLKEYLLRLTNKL
Experimental: Initial velocities were measured with increasing concentrations of inhibitors and Ki values were determined by Dixon plots in triplicate.

[5] = target: E. coli rEcPepN (Escherichia coli, UniProt P04825); assay: rEcPepN inhibition, Leu-pNA substrate, Dixon method; type: biochemical
Experimental: Enzyme activity assays were carried out in 10 mM Tris-HCl buffer at pH 7.5 with 150 mM NaCl, enzyme, 100 µM substrate (Leu-pNA) in a 100 μL reaction at 37 °C. The absorbance was read at 405 nm. Concentrations ranging from 1 nM to 100 μM of inhibitors (dissolved in DMSO) were incubated with each of the enzymes ([…]) for 30 min at 37 °C in a 96 well plate. After addition of the substrate, immediate increase in absorption was measured. All inhibition assays were performed in triplicates and initial velocities were measured. Percentage inhibition and log values of inhibitor concentrations were plotted using SigmaPlot to determine IC50 values. Ki values were determined by the Dixon method. The assay consists of reaction buffer, enzyme and varied concentrations of Leu-pNA (25, 50, 100, 200 and 400 µM). […] Data were plotted as 1/rate versus inhibitor concentration for each substrate concentration and a linear fit was calculated by non-linear regression using SigmaPlot12.5. All the reactions were performed in triplicates, SD values were reported.

[6] = target: pAPN from porcine kidney; settings: Dixon plots; cited from earlier work
[7] = target: human puromycine sensitive aminopeptidase (rHsPSA) (Homo sapiens, UniProt P55786); assay: rHsPSA inhibition, Leu-pNA substrate, Dixon method; type: biochemical; settings: triplicate, SD
Experimental: Enzyme activity assays were carried out in 10 mM Tris-HCl buffer at pH 7.5 with 150 mM NaCl, enzyme, 100 µM substrate (Leu-pNA) in a 100 μL reaction at 37 °C. The absorbance was read at 405 nm. Concentrations ranging from 1 nM to 100 μM of inhibitors (dissolved in DMSO) were incubated with each of the enzymes ([…]) for 30 min at 37 °C in a 96 well plate. After addition of the substrate, immediate increase in absorption was measured. All inhibition assays were performed in triplicates and initial velocities were measured. Percentage inhibition and log values of inhibitor concentrations were plotted using SigmaPlot to determine IC50 values. Ki values were determined by the Dixon method. The assay consists of reaction buffer, enzyme and varied concentrations of Leu-pNA (25, 50, 100, 200 and 400 µM). […]. All the reactions were performed in triplicates, SD values were reported.

[8] = target: T2, human Leucyl-cystinyl aminopeptidase (rHsIRAP) (Homo sapiens, UniProt Q9UIQ6); assay: rHsIRAP inhibition, L-AMC fluorigenic substrate; type: biochemical
T2 construct: made in house; host or cells: Hi5 insect cells (baculovirus produced in sf9)
Experimental: The enzymatic activity of HsERAP1, HsERAP2 and HsIRAP was determined by following the time-dependent increase in fluorescence at 460 nm (excitation: 380 nm) of the fluorigenic substrates L-Leucine-7-amido-4-methyl coumarin (L-AMC; Sigma, Darmstatd, Germany) for HsERAP1 and HsIRAP and L-arginyl-7-amido-4-methyl coumarin (R-AMC; Sigma) for HsERAP2. […]. The reaction was followed for 10 min at room temperature and the remaining enzymatic activity was calculated by measuring the slope of the time course. […]

[9] = target: T3, P. falciparum rPfAM17 (Plasmodium falciparum, UniProt Q8IL11); assay: rPfAM17 inhibition, Leu-pNA substrate, Dixon plots; type: biochemical
T3 construct: made in house; host or cells: Escherichia coli Rosetta 2 (DE3)
T3 sequence (Q8IL11 1-605): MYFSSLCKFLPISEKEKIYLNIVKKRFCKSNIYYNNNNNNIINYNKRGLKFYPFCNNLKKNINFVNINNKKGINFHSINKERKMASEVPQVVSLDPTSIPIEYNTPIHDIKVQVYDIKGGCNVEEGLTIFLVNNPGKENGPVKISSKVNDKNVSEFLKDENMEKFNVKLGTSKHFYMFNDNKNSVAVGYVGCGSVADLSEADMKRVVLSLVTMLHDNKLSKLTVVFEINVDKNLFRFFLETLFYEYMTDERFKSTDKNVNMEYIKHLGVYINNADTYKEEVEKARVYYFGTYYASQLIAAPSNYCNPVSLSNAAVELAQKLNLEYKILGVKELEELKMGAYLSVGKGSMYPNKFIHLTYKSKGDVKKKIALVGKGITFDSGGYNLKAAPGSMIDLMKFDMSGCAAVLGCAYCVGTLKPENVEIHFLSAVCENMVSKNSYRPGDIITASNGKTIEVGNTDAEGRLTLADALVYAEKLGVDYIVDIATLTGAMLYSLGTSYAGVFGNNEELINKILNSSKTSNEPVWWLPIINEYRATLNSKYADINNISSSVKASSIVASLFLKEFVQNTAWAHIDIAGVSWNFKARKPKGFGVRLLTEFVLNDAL
Experimental: Tests were carried out on HP/Agilent UV-Visible diode array spectrophotometer 8453 (HP/Agilent, Santa Clara, CA, USA), at 30 °C in Tris HCl 50 mM pH 7.4 for rPfAM1 and pH 8 for rPfAM17, with a final DMSO concentration of 1%. […]. […] Initial velocities were measured with increasing concentrations of inhibitors and Ki values were determined by Dixon plots in triplicate.

[10] = target: T4, human endoplasmic reticulum aminopeptidase 2 (rHsERAP2) (Homo sapiens, UniProt Q6P179); assay: rHsERAP2 inhibition, R-AMC fluorigenic substrate; type: biochemical; settings: 50 µM R-AMC
T4 construct: made in house; host or cells: Hi5 insect cells (baculovirus produced in sf9)
Experimental: (§1) The enzymatic activity of HsERAP1, HsERAP2 and HsIRAP was determined by following the time-dependent increase in fluorescence at 460 nm (excitation: 380 nm) of the fluorigenic substrates L-Leucine-7-amido-4-methyl coumarin (L-AMC; Sigma, Darmstatd, Germany) for HsERAP1 and HsIRAP and L-arginyl-7-amido-4-methyl coumarin (R-AMC; Sigma) for HsERAP2. […] The reaction was followed for 10 min at room temperature and the remaining enzymatic activity was calculated by measuring the slope of the time course.

[11] = target: T5, human endoplasmic reticulum aminopeptidase 1 (rHsERAP1) (Homo sapiens, UniProt Q9NZ08); assay: rHsERAP1 inhibition, L-AMC fluorigenic substrate; type: biochemical; settings: 50 µM L-AMC
T5 construct: made in house; host or cells: Hi5 insect cells (baculovirus produced in sf9)
Experimental: as §1

[12] = target: P. falciparum M17 aminopeptidase (PfAM17); settings: ref 45; cited from earlier work
[13] = target: mammalian aminopeptidase N (mAPN); settings: cited from earlier work
[14] = target: P. falciparum (PfAM1) M1 aminopeptidase; settings: cited from earlier work
[15] = target: human puromycine sensitive aminopeptidase (HsPSA); settings: cited from earlier work
[16] = tested on: E. coli (EcPepN) M1 aminopeptidase; settings: ref 49; cited from earlier work
[17] = target: mammalian cytosolic leucine aminopeptidase (mLAPc); settings: cited from earlier work
[18] = target: human arginyl aminopeptidase B (HsAPB); settings: ref 38; cited from earlier work
[19] = target: human aminopeptidase A (HsAPA); settings: cited from earlier work
[20] = target: human leukotriene A4 hydrolase (HsLTA4H); settings: ref 37; cited from earlier work
[21] = Dixon plots, triplicate, read-out: Ki rPfAM1
[22] = 50 µM L-AMC, read-out: IC50 rHsIRAP

T2 sequence (Q9UIQ6 155-1025 limits assumed): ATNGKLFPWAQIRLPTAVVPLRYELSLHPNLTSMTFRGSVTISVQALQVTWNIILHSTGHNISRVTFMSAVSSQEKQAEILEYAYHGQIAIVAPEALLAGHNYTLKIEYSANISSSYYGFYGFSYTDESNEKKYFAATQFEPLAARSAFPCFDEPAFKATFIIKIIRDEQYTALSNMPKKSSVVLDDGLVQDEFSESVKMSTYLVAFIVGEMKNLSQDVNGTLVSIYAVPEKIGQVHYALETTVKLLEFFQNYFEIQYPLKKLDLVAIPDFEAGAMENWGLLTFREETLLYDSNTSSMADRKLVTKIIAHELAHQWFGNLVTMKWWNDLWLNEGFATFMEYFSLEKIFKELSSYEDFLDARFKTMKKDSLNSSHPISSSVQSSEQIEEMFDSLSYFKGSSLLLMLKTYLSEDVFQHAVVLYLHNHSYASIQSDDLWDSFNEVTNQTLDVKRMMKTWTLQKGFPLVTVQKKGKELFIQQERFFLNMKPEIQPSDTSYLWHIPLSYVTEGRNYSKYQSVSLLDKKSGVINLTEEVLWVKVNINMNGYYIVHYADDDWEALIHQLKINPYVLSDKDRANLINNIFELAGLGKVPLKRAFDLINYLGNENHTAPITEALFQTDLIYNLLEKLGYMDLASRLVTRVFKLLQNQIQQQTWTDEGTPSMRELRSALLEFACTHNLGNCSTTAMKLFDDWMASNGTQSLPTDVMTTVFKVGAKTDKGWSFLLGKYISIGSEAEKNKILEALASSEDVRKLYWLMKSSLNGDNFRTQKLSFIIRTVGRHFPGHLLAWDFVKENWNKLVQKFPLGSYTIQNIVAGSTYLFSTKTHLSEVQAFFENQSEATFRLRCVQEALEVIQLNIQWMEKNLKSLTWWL
E. coli rEcPepN, sequence (P04825 whole entry): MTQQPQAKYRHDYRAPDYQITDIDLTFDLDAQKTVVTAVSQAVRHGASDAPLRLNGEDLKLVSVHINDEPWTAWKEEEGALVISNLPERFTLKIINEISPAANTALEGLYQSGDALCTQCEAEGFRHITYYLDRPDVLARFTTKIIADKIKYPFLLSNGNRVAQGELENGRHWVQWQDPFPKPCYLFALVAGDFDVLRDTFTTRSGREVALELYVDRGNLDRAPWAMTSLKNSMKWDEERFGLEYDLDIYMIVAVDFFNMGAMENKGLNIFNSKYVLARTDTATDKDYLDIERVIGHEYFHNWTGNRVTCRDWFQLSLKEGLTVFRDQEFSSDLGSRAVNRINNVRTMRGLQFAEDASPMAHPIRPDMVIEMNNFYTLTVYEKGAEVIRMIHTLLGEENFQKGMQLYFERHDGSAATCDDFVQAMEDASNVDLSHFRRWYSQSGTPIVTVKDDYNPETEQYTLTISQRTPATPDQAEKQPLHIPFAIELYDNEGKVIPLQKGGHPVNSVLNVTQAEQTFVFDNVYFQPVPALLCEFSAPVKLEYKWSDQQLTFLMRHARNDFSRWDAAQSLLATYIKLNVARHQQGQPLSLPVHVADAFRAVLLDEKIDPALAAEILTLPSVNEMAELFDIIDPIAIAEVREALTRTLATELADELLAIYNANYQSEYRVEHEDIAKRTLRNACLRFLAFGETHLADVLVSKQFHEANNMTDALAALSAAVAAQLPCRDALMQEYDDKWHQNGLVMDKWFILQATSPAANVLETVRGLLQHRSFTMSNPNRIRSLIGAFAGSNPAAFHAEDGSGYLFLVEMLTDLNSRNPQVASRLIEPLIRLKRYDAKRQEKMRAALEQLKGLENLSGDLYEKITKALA
T4 sequence (Q6P179 whole entry): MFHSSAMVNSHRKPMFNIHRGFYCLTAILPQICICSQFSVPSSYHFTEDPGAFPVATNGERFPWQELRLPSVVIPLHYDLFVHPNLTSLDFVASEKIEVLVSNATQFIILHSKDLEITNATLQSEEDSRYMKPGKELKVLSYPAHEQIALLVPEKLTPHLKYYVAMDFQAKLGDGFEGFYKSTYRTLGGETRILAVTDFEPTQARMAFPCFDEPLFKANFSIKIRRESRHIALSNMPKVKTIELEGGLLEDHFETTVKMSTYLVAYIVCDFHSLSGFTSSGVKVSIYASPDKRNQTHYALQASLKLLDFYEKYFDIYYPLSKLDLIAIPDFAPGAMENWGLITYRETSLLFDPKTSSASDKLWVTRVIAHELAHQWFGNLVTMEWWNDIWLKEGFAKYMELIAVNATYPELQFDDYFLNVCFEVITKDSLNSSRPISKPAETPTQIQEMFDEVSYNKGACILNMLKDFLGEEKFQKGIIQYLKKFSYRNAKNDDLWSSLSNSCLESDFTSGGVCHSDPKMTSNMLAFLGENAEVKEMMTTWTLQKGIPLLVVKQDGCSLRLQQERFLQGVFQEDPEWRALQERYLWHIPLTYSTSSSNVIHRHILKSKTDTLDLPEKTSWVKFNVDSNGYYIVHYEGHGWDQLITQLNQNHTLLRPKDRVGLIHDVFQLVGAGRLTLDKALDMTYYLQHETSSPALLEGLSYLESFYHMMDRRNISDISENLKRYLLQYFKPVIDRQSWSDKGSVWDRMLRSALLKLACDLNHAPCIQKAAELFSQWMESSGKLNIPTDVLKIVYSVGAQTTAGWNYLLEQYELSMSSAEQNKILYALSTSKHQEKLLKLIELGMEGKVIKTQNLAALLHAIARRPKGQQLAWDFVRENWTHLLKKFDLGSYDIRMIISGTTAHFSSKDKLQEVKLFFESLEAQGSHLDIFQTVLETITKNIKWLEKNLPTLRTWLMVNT
T5 sequence (Q9NZ08 whole entry): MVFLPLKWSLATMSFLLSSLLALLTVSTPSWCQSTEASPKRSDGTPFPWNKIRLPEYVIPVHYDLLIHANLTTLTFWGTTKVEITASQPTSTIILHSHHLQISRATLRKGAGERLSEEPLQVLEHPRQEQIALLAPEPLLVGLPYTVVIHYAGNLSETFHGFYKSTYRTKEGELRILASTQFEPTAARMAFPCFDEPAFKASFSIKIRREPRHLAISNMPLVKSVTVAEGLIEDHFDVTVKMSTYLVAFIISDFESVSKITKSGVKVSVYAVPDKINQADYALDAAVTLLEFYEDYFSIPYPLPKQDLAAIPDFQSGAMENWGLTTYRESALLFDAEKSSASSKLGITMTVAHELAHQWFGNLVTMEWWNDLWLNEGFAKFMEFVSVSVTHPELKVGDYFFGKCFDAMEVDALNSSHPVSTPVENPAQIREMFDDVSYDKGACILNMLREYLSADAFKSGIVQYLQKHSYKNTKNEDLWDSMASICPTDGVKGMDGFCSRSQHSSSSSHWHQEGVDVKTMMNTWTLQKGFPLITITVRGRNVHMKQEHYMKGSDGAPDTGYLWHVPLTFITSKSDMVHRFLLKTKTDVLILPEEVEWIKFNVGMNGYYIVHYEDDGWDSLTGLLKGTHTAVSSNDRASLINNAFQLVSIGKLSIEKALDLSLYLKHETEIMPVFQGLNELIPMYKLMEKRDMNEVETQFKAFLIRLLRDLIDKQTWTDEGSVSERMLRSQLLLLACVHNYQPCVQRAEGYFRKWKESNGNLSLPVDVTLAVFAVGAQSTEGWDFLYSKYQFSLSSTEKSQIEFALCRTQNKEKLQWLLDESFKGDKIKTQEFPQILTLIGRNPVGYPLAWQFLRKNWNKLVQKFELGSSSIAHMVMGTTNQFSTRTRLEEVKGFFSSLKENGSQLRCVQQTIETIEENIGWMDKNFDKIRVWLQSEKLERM
human puromycine sensitive aminopeptidase (rHsPSA), sequence (P55786 whole entry): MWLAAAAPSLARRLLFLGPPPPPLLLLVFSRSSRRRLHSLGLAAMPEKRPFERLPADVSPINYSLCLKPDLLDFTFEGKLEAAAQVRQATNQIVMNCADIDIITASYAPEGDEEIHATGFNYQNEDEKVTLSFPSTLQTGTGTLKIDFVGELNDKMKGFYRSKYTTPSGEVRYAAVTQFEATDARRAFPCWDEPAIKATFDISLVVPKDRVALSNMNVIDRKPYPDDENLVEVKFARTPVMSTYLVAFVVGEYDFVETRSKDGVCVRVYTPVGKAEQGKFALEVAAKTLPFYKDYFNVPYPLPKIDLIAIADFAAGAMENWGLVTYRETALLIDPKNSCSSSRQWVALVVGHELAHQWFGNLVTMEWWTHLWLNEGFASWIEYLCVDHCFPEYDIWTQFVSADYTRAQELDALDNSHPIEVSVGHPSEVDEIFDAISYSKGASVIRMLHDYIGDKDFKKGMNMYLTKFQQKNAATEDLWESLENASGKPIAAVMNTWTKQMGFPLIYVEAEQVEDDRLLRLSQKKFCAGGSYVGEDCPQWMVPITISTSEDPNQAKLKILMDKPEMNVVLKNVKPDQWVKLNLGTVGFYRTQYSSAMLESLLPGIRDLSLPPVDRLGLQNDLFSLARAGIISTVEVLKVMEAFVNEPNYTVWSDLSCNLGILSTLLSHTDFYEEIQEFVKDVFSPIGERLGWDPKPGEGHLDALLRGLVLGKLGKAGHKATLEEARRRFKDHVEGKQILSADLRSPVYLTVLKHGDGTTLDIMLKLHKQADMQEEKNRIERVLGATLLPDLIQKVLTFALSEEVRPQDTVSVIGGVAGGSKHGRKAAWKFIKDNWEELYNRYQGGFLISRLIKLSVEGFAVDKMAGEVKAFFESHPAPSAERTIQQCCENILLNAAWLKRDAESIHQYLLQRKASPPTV

NC1CCc2ccccc2CC1=O (centres unmarked) [21a]
chromatographic logD [1]: 0.54 | Ki [2]: > 100 µM | Ki [3]: > 100 µM | Ki [4, 21]: 15 ± 0.07 µM | Ki [5]: 50 ± 3 µM | Ki [6]: 1000 nM

NC1CCc2cccc(Br)c2CC1=O (centres unmarked) [21b]
Ki [7]: 1.63 ± 0.08 µM | chromatographic logD [1]: 1.28 | IC50 [8, 22]: 1 ± 0.08 µM | Ki [2]: > 100 µM | Ki [9]: > 100 µM | Ki [3]: > 100 µM | IC50 [10]: 49 ± 3.8 µM | IC50 [11]: 120 ± 11 µM | Ki [5]: 1.07 ± 0.11 µM | Ki [6]: 40 nM

NC1CCc2c(cccc2-c2ccccc2)CC1=O (centres unmarked) [21f]
chromatographic logD [1]: 2.22 | IC50 [8, 22]: 2.2 ± 0.13 µM | Ki [2]: > 100 µM | Ki [9]: > 100 µM | Ki [3]: > 100 µM | IC50 [10]: > 200 µM | Ki [4]: 2 ± 0.07 µM | IC50 [11]: 137 ± 5 µM | Ki [6]: 250 nM

NC1CCc2c(ccc3ccccc23)CC1=O (centres unmarked) [21g]
chromatographic logD [1]: 1.67 | Ki [2]: > 100 µM | Ki [3]: > 100 µM | Ki [4, 21]: 15 ± 1 µM | Ki [6]: 40 nM

NC1CCc2c(Br)ccc(Br)c2CC1=O (centres unmarked) [21h]
chromatographic logD [1]: 2.48 | IC50 [8]: 0.034 ± 0.001 µM | Ki ([8]; read-out: Ki HsIRAP): 0.034 µM | Ki [4, 21]: 0.005 ± 0.001 µM

NC1CCc2c(Br)ccc(-c3ccccc3)c2CC1=O (centres unmarked) [21i]
Ki [7]: 0.021 ± 0.003 µM | chromatographic logD [1]: 3.12 | IC50 [8]: 0.12 ± 0.015 µM | % of inhibition of rHsLTA4H [2]: 68% ^# | Ki [3]: 39 µM | IC50 [10]: 0.39 ± 0.013 µM | Ki [4]: 0.03 ± 0.005 µM | IC50 [11]: 1.6 ± 0.1 µM | Ki ([5]; Dixon method, triplicate, SD, read-out: Ki rEcPepN): 0.05 ± 0.003 µM | times more potent than 21c on EcPepN ([5]; ratio of Ki values, 21i versus 21c): 3 | Ki [6]: 0.06 nM

NC1CCc2c(-c3ccccc3)ccc(Br)c2CC1=O (centres unmarked) [21j]
chromatographic logD [1]: 3.06 | % of inhibition of rHsLTA4H [2]: 54% ^# | Ki [3]: > 100 µM | Ki [4, 21]: 4 ± 0.7 µM | Ki [6]: 70 nM

NC(CCc1ccccc1)P(=O)(O)CC(Cc1ccccc1)C(=O)O (centres unmarked) [compound 2]
Ki [12]: 0.013 µM | Ki ([13]; ref 46): 0.002 µM | Ki ([14]; ref 47): 0.079 µM

CCOC(=O)C1=C(Nc2ccccc2)CC(c2ccccn2)N(c2ccccc2)C1c1cccnc1 (centres unmarked) [compound 4]
Ki ([13]; ref 49): > 100 µM | Ki ([14]; ref 49): > 100 µM | IC50 ([15]; ref 49): 1.79 µM | Ki [16]: > 100 µM

NC1Cc2ccc3ccccc3c2CC1=O (centres unmarked) [compound 5]
Ki ([17]; ref 38): 3 µM | Ki [18]: > 1000 µM | Ki ([19]; NI = no inhibition): > 1000 µM

N[C@H](CS)CCC(=O)O [compound 6]
Ki ([19]; ref 50): 0.14 µM

CC(C)C[C@@H](C(=O)N[C@H](C(=O)O)c1ccccc1)[C@H](O)C(=O)NO [compound 8]
IC50 [20]: 0.008 µM | IC50 ([17]; ref 37): 0.03 µM | IC50 ([15]; ref 37): 0.85 µM

O=C(CCc1ccc(F)cc1)/C(=C/c1ccccc1)C(=O)NO [compound 10]
IC50 ([13]; ref 35, 53): 1.37 µM | IC50 ([14]; ref 35, 53): 0.006 µM

CCc1cccc(CC)c1N1C(=O)c2cccc3cccc(c23)C1=O [compound 12]
Ki ([13]; ref 55): > 100 µM | IC50 ([15]; ref 55): 0.8 µM
